How the values were obtained:
Format in all cases: cell-based
Microsporum canis = assay: Antifungal activity in vitro, resazurin growth inhibition: Microsporum canis (B68128)
Summary of the method: (§1)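 Broth microdilution: RPMI-1640/L-Gln/2% glucose, MOPS pH 7.0±0.1; 10^3 cfu/well; top concentration 64 μM, 2- or 4-fold steps. Dermatophytes at 27° C., one week or more. Resazurin 0.005% (w/v) added, fluorescence 550/590 nm.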

Trichophyton rubrum = assay: Antifungal activity in vitro, resazurin growth inhibition: Trichophyton rubrum (B68183)
Summary of the method: as §1

Sporothrix schenkii = assay: Antifungal activity in vitro, resazurin growth inhibition: Sporothrix schenkii (B62482)
Summary of the method: (§2)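 Resazurin conversion to fluorescent resorufin (ex 550/em 590 nm) served as the growth readout. Compounds spanned 2- or 4-fold serial dilutions with 64 μM top in-test concentration; inoculum 10^3 cfu per well in MOPS-buffered RPMI-1640 (pH 7.0, 2% glucose). Incubation species-dependent, dermatophytes at 27° C. for ≥1 week.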

Candida parapsilosis = assay: Antifungal activity in vitro, resazurin growth inhibition: Candida parapsilosis (B66126)
Summary of the method: as §2

[1] = system: Trichophyton mentagrophytes; assay: Antifungal activity in vitro, resazurin growth inhibition: Trichophyton mentagrophytes (B70554)
Summary of the method: as §1

Cryptococcus neoformans = assay: Antifungal activity in vitro, resazurin growth inhibition: Cryptococcus neoformans (B66663)
Summary of the method: as §2

Aspergillus fumigatus = assay: Antifungal activity in vitro, resazurin growth inhibition: Aspergillus fumigatus (B42928)
Summary of the method: as §2

Row | Structure (SMILES) | Inf. B: Microsporum canis B68128, pIC50 (Microsporum canis) | Inf. C: Trichophyton rubrum B68183, pIC50 (Trichophyton rubrum) | Inf. A: Sporothrix schenkii B62482, pIC50 (Sporothrix schenkii) | Inf. D: Candida parapsilosis B66126, pIC50 (Candida parapsilosis) | Inf. G: Trichophyton mentagrophytes B70554, pIC50 [1] | Inf. F: Cryptococcus neoformans B66663, pIC50 (Cryptococcus neoformans) | Inf. E: Aspergillus fumigatus B42928, pIC50 (Aspergillus fumigatus)
1 | Clc1cc2cc(C3=NCc4c(Cl)cccc4-n4cccc43)ccc2o1 [Compound 155] | 6.82 | 7.15 | 5.66 | 4.94 | 6.82 | 5.81 | 5.88
2 | Cl.Fc1ccc2oc(C3NCc4ccc(Cl)cc4-n4cccc43)cc2c1 (racemic) [Compound 48] | 4.30 | 5.39 | <4.19 | <4.19 | <4.19 | 4.84 | <4.19
3 | Fc1cccc2c1CN=C(c1ccc3scnc3c1)c1cccn1-2 [Compound 189] | 5.29 | 6.05 | <4.19 | <4.19 | 5.52 | 5.06 | 5.02
4 | Cc1cccc2c1CNC(c1cc3ccccc3o1)c1cccn1-2.Cl (racemic) [Compound 32] | 5.70 | 6.10 | 4.35 | <4.19 | 5.70 | 4.39 | <4.19
5 | Fc1cc(Cl)c2c(c1)-n1cccc1C(c1ccc(Cl)nc1)=NC2 [Compound 78] | 5.41 | 6.18 | <4.19 | 5.07 | 4.47 | <4.19 | 5.42
6 | Cl.FC(F)(F)c1ccc(C2NCc3ccccc3-n3cccc32)cn1 (racemic) [Compound 15] | 4.25 | 4.70 | <4.19 | <4.19 | 4.56 | 4.92 | <4.19
7 | Cc1nc2ccc(C3=NCc4c(Cl)cccc4-n4cccc43)cc2o1 [Compound 162] | 5.23 | 5.61 | 4.22 | <4.19 | 5.21 | 4.49 | 4.36
8 | Cc1ncc(C2=NCc3c(Cl)cccc3-n3cccc32)cn1 [Compound 100] | 4.21 | <4.19 | <4.19 | <4.19 | <4.19 | <4.19 | <4.19
9 | CCc1cnc(C2=NCc3c(Cl)cccc3-n3cccc32)s1 [Compound 66] | 4.98 | 6.18 | <4.19 | <4.19 | 4.19 | <4.19 | <4.19
10 | Cc1nc2ccc(C3NCc4c(Cl)cccc4-n4cccc43)cc2o1.Cl (racemic) [Compound 50] | 4.56 | 4.49 | <4.19 | <4.19 | <4.19 | <4.19 | <4.19
